Experiments:
Epidermophyton floccosum [1] = assay: Summary of anti-fungal assays (direct addition, agar dilution, liquid culture); assay type: cell-based; conditions: stated in words (Tables 1a/1b, text to Table 5)
Experimental: (§1) This example summarizes the results of various other assays of the anti-fungal activity of betulin derivatives. Table 5 summarizes results using different assay methods—direct addition, agar dilution, and direct addition to liquid culture, as disclosed in the previous three Examples. In some cases, only one type of assay was done with a compound. In other cases, the compound was tested by multiple assays.

[2] = tested on: Trichophyton mentagrophyte; assay: Agar dilution method, growth on Sabouraud dextrose agar slants; assay type: cell-based, Trichophyton mentagrophytes; set-up: key to Fungal growth: +++: Maximum Fungal Growth; ++: Moderate Fungal Growth; +: Minimum Fungal Growth; +/−: Very little Fungal Growth; −: No Fungal Growth; conditions: 12th day after inoculation
Experimental: (§2) Agar dilution method. Sabouraud Dextrose Agar (Difco Laboratories, Michigan) was prepared according to the manufacturer's instructions. Five ml was dispensed in a 100×25 mm tube and autoclaved. To each tube containing 5.0 ml of liquid agar at 45° C., 0.5, 0.25, 0.12, or 0.063 ml of a DMSO solution of the compound was added to give the final indicated concentrations in Table 2. The agar was then solidified in slants. Fungal cultures were inoculated. The slants were incubated at 25-28° C. for 10-12 days, and the growth of the fungus was recorded every second day.

Microsporum canis [3] = assay: as above; assay type: cell-based; set-up: key: +++: Maximum Fungal Growth; ++: Moderate Fungal Growth; +: Minimum Fungal Growth; +/−: Very little Fungal Growth; −: No Fungal Growth; conditions: 12th day after inoculation
Experimental: as §2

Trichophyton rubrum [4] = assay: as above; assay type: cell-based; set-up: key: +++: Maximum Fungal Growth; ++: Moderate Fungal Growth; +: Minimum Fungal Growth; +/−: Very little Fungal Growth; −: No Fungal Growth; conditions: 12th day after inoculation
Experimental: as §2

Microsporum gypseum = assay: as above; assay type: cell-based; set-up: key: +++: Maximum Fungal Growth; ++: Moderate Fungal Growth; +: Minimum Fungal Growth; +/−: Very little Fungal Growth; −: No Fungal Growth; conditions: 12th day after inoculation
Experimental: as §2

Pityrosporum ovale [5] = assay: as above; assay type: cell-based; set-up: key: +++: Maximum Fungal Growth; ++: Moderate Fungal Growth; +: Minimum Fungal Growth; +/−: Very little Fungal Growth; −: No Fungal Growth; conditions: 12th day after inoculation
Experimental: as §2

Epidermophyton floccosum [6] = assay: as above; assay type: cell-based; set-up: key to Fungal growth: +++: Maximum Fungal Growth; ++: Moderate Fungal Growth; +: Minimum Fungal Growth; +/−: Very little Fungal Growth; −: No Fungal Growth; conditions: 12th day after inoculation
Experimental: as §2

Trichophyton tonsurans = assay: Summary of anti-fungal assays (direct addition, agar dilution, liquid culture); assay type: cell-based; conditions: stated in words (Tables 1a/1b, text to Table 5)
Experimental: as §1

Microsporum audouinii = assay: as above; assay type: cell-based; conditions: stated in words (Tables 1a/1b, text to Table 5)
Experimental: as §1

Trichophyton tonsuran = assay: Agar dilution method, growth on Sabouraud dextrose agar slants; assay type: cell-based, Trichophyton tonsurans; set-up: key: +++: Maximum Fungal Growth; ++: Moderate Fungal Growth; +: Minimum Fungal Growth; +/−: Very little Fungal Growth; −: No Fungal Growth; conditions: 12th day after inoculation
Experimental: as §2

Microsporum audouinni [7] = assay: as above; assay type: cell-based, Microsporum audouinii; set-up: key: +++: Maximum Fungal Growth; ++: Moderate Fungal Growth; +: Minimum Fungal Growth; +/−: Very little Fungal Growth; −: No Fungal Growth; conditions: 12th day after inoculation
Experimental: as §2

Microsporum audouinni [8] = assay: Direct addition method, solid compound in Sabouraud dextrose agar; assay type: cell-based, Microsporum audouinii; set-up: key to Fungal growth: +++: Maximum Fungal Growth; ++: Moderate Fungal Growth; +: Minimum Fungal Growth; +/−: Very little Fungal Growth; −: No Fungal Growth
Experimental: (§3) Direct addition method. Sabouraud dextrose agar was prepared according to the manufacturer's instructions and 5.0 ml was dispensed in each 100×25 mm tube. The tubes were autoclaved. To each tube containing 5.0 ml of liquid agar at 45° C., 20 mg of solid test compound was added, to give a final concentration of 4 mg/ml. The agar was solidified in slants. The fungal cultures were then innoculated. The slants were incubated at 25-28 ° C. for 10-12 days, and the growth of the fungus was recorded every second day. The results in Table 2 indicate growth at the 12th day of inoculation.

Pityrosporum ovale [9] = assay: Direct addition into the Pityrosporum agar; assay type: cell-based; set-up: key to Pityrosporum ovale growth: +++: Maximum Growth; ++: Moderate Growth; +: Minimum Growth; +/−: Very Little Growth; −: No Growth; conditions: 4 mg/ml in the agar; 18 hours after inoculation
Experimental: as §3, with “The slants were incubated at 25-28 ° C. for 10-12 days, and the growth of the fungus was recorded every second day. The results in Table 2 indicate growth at the 12th day of inoculation.” left out

Epidermophyton floccosum [10] = assay: Direct addition method, solid compound in Sabouraud dextrose agar; assay type: cell-based; set-up: key: +++: Maximum Fungal Growth; ++: Moderate Fungal Growth; +: Minimum Fungal Growth; +/−: Very little Fungal Growth; −: No Fungal Growth; conditions: 4 mg/mL of agar; 12th day after inoculation
Experimental: as §3

Microsporum canis [11] = assay: as above; assay type: cell-based; set-up: key: +++: Maximum Fungal Growth; ++: Moderate Fungal Growth; +: Minimum Fungal Growth; +/−: Very little Fungal Growth; −: No Fungal Growth; conditions: 4 mg/mL of agar; 12th day after inoculation
Experimental: as §3

Trichophyton rubrum [12] = assay: as above; assay type: cell-based; set-up: key: +++: Maximum Fungal Growth; ++: Moderate Fungal Growth; +: Minimum Fungal Growth; +/−: Very little Fungal Growth; −: No Fungal Growth; conditions: 4 mg/mL of agar; 12th day after inoculation
Experimental: as §3

Pityrosporum ovale [13] = assay: as above; assay type: cell-based; set-up: key: +++: Maximum Fungal Growth; ++: Moderate Fungal Growth; +: Minimum Fungal Growth; +/−: Very little Fungal Growth; −: No Fungal Growth; conditions: 4 mg/mL of agar; 12th day after inoculation
Experimental: as §3

## C=C(C)C1CCC2(COC(=O)COCC(=O)O)CCC3(C)C(CCC4C5(C)CCC(O)C(C)(C)C5CCC43C)C12 (stereo not drawn) [Betulin-28-diglycolate]
Epidermophyton floccosum [1]
  Active against Epidermophyton floccosum: against Epidermophyton floccosum

## C=C(C)C1CCC2(COC(=O)c3ccccc3C(=O)O)CCC3(C)C(CCC4C5(C)CCC(O)C(C)(C)C5CCC43C)C12 (stereo not drawn) [Betulin-28-phthalate]
[2]; 12.5 μg/ml
  Fungal growth: +++
[2]; 25 μg/ml
  Fungal growth: ++
[2]; 50 μg/ml
  Fungal growth: +
[2]; 100 μg/ml
  Fungal growth: −
Microsporum canis [3]; 12.5 μg/ml
  Fungal growth: ++
Microsporum canis [3]; 25 μg/ml
  Fungal growth: +
Microsporum canis [3]; 50 μg/ml
  Fungal growth: −
Microsporum canis [3]; 100 μg/ml
  Fungal growth: −
Trichophyton rubrum [4]; 12.5 μg/ml
  Fungal growth: ++
Trichophyton rubrum [4]; 25 μg/ml
  Fungal growth: +
Trichophyton rubrum [4]; 50 μg/ml
  Fungal growth: +
Trichophyton rubrum [4]; 100 μg/ml
  Fungal growth: −
Microsporum gypseum; 12.5 μg/ml
  Fungal growth: +++
Microsporum gypseum; 25 μg/ml
  Fungal growth: ++
Microsporum gypseum; 50 μg/ml
  Fungal growth: ++
Microsporum gypseum; 100 μg/ml
  Fungal growth: −
Pityrosporum ovale [5]; 12.5 μg/ml
  Fungal growth: +++
Pityrosporum ovale [5]; 25 μg/ml
  Fungal growth: +++
Pityrosporum ovale [5]; 50 μg/ml
  Fungal growth: ++
Pityrosporum ovale [5]; 100 μg/ml
  Fungal growth: −
Epidermophyton floccosum [6]; 12.5 μg/ml
  Fungal growth: +++
Epidermophyton floccosum [6]; 25 μg/ml
  Fungal growth: ++
Epidermophyton floccosum [6]; 50 μg/ml
  Fungal growth: +
Epidermophyton floccosum [6]; 100 μg/ml
  Fungal growth: −
Trichophyton tonsurans
  Active against Trichophyton tonsurans: Trichophyton tonsurans
Microsporum audouinii
  Active against Microsporum audouinii: Microsporum audouinii
Trichophyton tonsuran; 12.5 μg/ml
  Fungal growth: ++
Trichophyton tonsuran; 25 μg/ml
  Fungal growth: +
Trichophyton tonsuran; 50 μg/ml
  Fungal growth: −
Trichophyton tonsuran; 100 μg/ml
  Fungal growth: −
Microsporum audouinni [7]; 12.5 μg/ml
  Fungal growth: ++
Microsporum audouinni [7]; 25 μg/ml
  Fungal growth: +
Microsporum audouinni [7]; 50 μg/ml
  Fungal growth: −
Microsporum audouinni [7]; 100 μg/ml
  Fungal growth: −

## C=C(C)C1CCC2(COC(=O)CCC(=O)O)CC[C@@]3(C)C(CCC4[C@@]5(C)CCC(O)C(C)(C)C5CC[C@]43C)C12 (stereo partly drawn) [Betulin-28-succinate]
Microsporum audouinni [8]; 4 mg/mL of agar, 12th day after inoculation
  Fungal growth: −
Microsporum audouinni [8]; against Microsporum audouinii
  best anti-fungal or anti-yeast activity by the direct addition method: against Microsporum audouinii
[2]; 125 μg/ml
  Fungal growth: ++
[2]; 250 μg/ml
  Fungal growth: +
[2]; 500 μg/ml
  Fungal growth: +
[2]; 1000 μg/ml
  Fungal growth: −
Microsporum canis [3]; 125 μg/ml
  Fungal growth: +
Microsporum canis [3]; 250 μg/ml
  Fungal growth: +
Microsporum canis [3]; 500 μg/ml
  Fungal growth: +
Microsporum canis [3]; 1000 μg/ml
  Fungal growth: −
Trichophyton rubrum [4]; 125 μg/ml
  Fungal growth: +
Trichophyton rubrum [4]; 250 μg/ml
  Fungal growth: +
Trichophyton rubrum [4]; 500 μg/ml
  Fungal growth: +
Trichophyton rubrum [4]; 1000 μg/ml
  Fungal growth: −
Microsporum gypseum; 125 μg/ml
  Fungal growth: ++
Microsporum gypseum; 250 μg/ml
  Fungal growth: +
Microsporum gypseum; 500 μg/ml
  Fungal growth: +
Microsporum gypseum; 1000 μg/ml
  Fungal growth: −
Pityrosporum ovale [5]; 125 μg/ml
  Fungal growth: +++
Pityrosporum ovale [5]; 250 μg/ml
  Fungal growth: +++
Pityrosporum ovale [5]; 500 μg/ml
  Fungal growth: +++
Pityrosporum ovale [5]; 1000 μg/ml
  Fungal growth: ++
Epidermophyton floccosum [6]; 125 μg/ml
  Fungal growth: ++
Epidermophyton floccosum [6]; 250 μg/ml
  Fungal growth: +
Epidermophyton floccosum [6]; 500 μg/ml
  Fungal growth: +
Epidermophyton floccosum [6]; 1000 μg/ml
  Fungal growth: −
Pityrosporum ovale [9]
  Pityrosporum ovale growth: +
Microsporum audouinii
  Active against Microsporum audouinii: Microsporum audouinii
Trichophyton tonsuran; 125 μg/ml
  Fungal growth: ++
Trichophyton tonsuran; 250 μg/ml
  Fungal growth: +
Trichophyton tonsuran; 500 μg/ml
  Fungal growth: +
Trichophyton tonsuran; 1000 μg/ml
  Fungal growth: −
Epidermophyton floccosum [10]
  Fungal growth: −
Microsporum canis [11]
  Fungal growth: +
Trichophyton rubrum [12]
  Fungal growth: +
Pityrosporum ovale [13]
  Fungal growth: −
Microsporum audouinni [7]; 125 μg/ml
  Fungal growth: +
Microsporum audouinni [7]; 250 μg/ml
  Fungal growth: +/−
Microsporum audouinni [7]; 500 μg/ml
  Fungal growth: −
Microsporum audouinni [7]; 1000 μg/ml
  Fungal growth: −

Reference: patent US6642217B2, “Triterpenes having human antifungal and antiyeast activity” (Naturtek, LLC, priority 2000, dated 2003)
